For orientation: IC50 means the midpoint of a concentration-inhibition curve.

Each structure is given as a SMILES string.

This test relates to Wnt stimulated TCF transcriptional activity, HEK293-TS 112 TCF reporter cell line. The experiment in a line: Tankyrase 1 Assay (Example 119): Wnt3A-stimulated TOPbrite TCF luciferase reporter. The format is cell-based. To be noted: Compounds I-59 to I-144, procedure in Example 119 (0.5 ug/mL Wnt3A, 16 hours); read-out: TNKS1 (IC50). As for the experimental part:
Inhibition of the Wnt stimulated TCF transcriptional activity by tankyrase inhibitors was determined utilizing a HEK293-TS 112 TCF reporter cell line. A Wnt-responsive luciferase reporter named TOPbrite was constructed by cloning the enhancer element of Super8xTOPFlash containing eight TCF/LEF binding sites into the pGL4.28 vector (Promega) upstream of the minimal promoter element, and selecting for hygromycin B resistance (50 μg/ml). Cells were seeded into 384-well plates in the presence of 0.5 ug/mL of Wnt3A at a density of 20,000 cells per well in 25 ul of F:12 DMEM media supplemented with 10% FBS and 2 mM Glutamax. Cells seeded without the addition of Wnt3A were used as background signal. Compounds of various concentrations were added to cells and incubated at 37 degrees with 5% CO2 for 16 hours. The assay was terminated with the addition of Promega Dual Glo kit per manufacturer's instructions. A ratio of TOPbrite Firefly Luciferase and SV40 Renillla Luciferase was calculated and the background from the neutral wells was subtracted yielding the final normalized measurement of TCF transcriptional activity. Compound IC50s were determined by four-parameter curve fitting using GeneData software.
On the technique in general: A reporter such as luciferase makes a cellular process visible.
With `CC(O)c1cc(F)c(N2CCN(c3nc4c(cnn4C)c(=O)[nH]3)CC2)c(F)c1` (centres unmarked) [Compound I-69, 6-[4-[2 6-difluoro-4-(1-hydroxyethyl)phenyl]piperazin-1-yl]-1-methyl-5H-pyrazolo[3 4-d]pyrimidin-4-one], the IC50 amounted to 7.8 nM.
Next, `Cn1ncc2c(=O)[nH]c(N3CCC(c4n[nH]c5ncccc45)CC3)nc21` [Compound I-97, 1-methyl-6-[4-(1H-pyrazolo[3 4-b]pyridin-3-yl)-1-piperidyl]-5H-pyrazolo[3 4-d]pyrimidin-4-one]: 31.9 nM.
Then `Cn1ncc2c(=O)[nH]c(N3CCC(S(=O)(=O)CC4CCCCC4)CC3)nc21` [Compound I-135, 6-[4-(cyclohexylmethylsulfonyl)-1-piperidyl]-1-methyl-5H-pyrazolo[3 4-d]pyrimidin-4-one], with 406 nM; and `Cn1ncc2c(=O)[nH]c(N3CCN([C@H]4CC[C@@H](O)CC4)CC3)nc21` [Compound I-124, 6-[4-(4-hydroxycyclohexyl)piperazin-1-yl]-1-methyl-5H-pyrazolo[3 4-d]pyrimidin-4-one], with 171 nM; and `COCCOc1cc(F)c(N2CCN(c3nc4c(cnn4CCO)c(=O)[nH]3)CC2)c(F)c1` [Compound I-94, 6-[4-[2 6-difluoro-4-(2-methoxyethoxy)phenyl]piperazin-1-yl]-1-(2-hydroxyethyl)-5H-pyrazolo[3 4-d]pyrimidin-4-one], with 264 nM.
Then `CC(C)n1ccc(C2(C)CCN(c3nc4c(cnn4C)c(=O)[nH]3)CC2)n1` [Compound I-119, 6-[4-(1-isopropylpyrazol-3-yl)-4-methyl-1-piperidyl]-1-methyl-5H-pyrazolo[3 4-d]pyrimidin-4-one], with 124 nM; and `COCCOc1cc(F)c(N2CCN(c3nc4c(cnn4CC(C)O)c(=O)[nH]3)CC2)c(F)c1` (centres unmarked) [Compound I-126, 6-[4-[2 6-difluoro-4-(2-methoxyethoxy)phenyl]piperazin-1-yl]-1-(2-hydroxypropyl)-5H-pyrazolo[3 4-d]pyrimidin-4-one], with 220 nM; and `Cn1ncc2c(=O)[nH]c(N3CCC(c4ccccn4)CC3)nc21` [Compound I-111, 1-methyl-6-[4-(2-pyridyl)-1-piperidyl]-5H-pyrazolo[3 4-d]pyrimidin-4-one], with 83.8 nM.
For `Cn1nccc1C1(C)CCN(c2nc3c(cnn3C)c(=O)[nH]2)CC1` [Compound I-96, 1-methyl-6-[4-methyl-4-(2-methylpyrazol-3-yl)-1-piperidyl)-5H-pyrazolo[3 4-d]pyrimidin-4-one], the half-maximal inhibitory concentration (IC50) came to 28.4 nM.
Regarding `Cn1ncc2c(=O)[nH]c(N3CCN(c4c(F)cc(OC5CC[S+]([O-])CC5)cc4F)CC3)nc21` (centres unmarked) [Compound I-87, 6-[4-[2 6-difluoro-4-(1-oxothian-4-yl)oxy-phenyl]piperazin-1-yl]-1-methyl-5H-pyrazolo[3 4-d]pyrimidin-4-one], the half-maximal inhibitory concentration (IC50) was 18.7 nM.
Next, `Cc1noc(C2(C)CCN(c3nc4c(cnn4C)c(=O)[nH]3)CC2)n1` [Compound I-91, 1-methyl-6-[4-methyl-4-(3-methyl-1 2 4-oxadiazol-5-yl)-1-piperidyl]-5H-pyrazolo[3 4-d]pyrimidin-4-one]: 24.1 nM.
Then `Cn1ncc2c(=O)[nH]c(N3CCN(c4c(F)cc(OC(CO)CCl)cc4F)CC3)nc21` (centres unmarked) [Compound I-64, 6-[4-[4-[1-(chloromethyl)-2-hydroxy-ethoxy]-2 6-difluoro-phenyl]piperazin-1-yl]-1-methyl-5H-pyrazolo[3 4-d]pyrimidin-4-one], with 6.4 nM; and `Cn1ncc2c(=O)[nH]c(N3CCC(n4cccn4)CC3)nc21` [Compound I-112, 1-methyl-6-(4-pyrazol-1-yl-1-piperidyl)-5H-pyrazolo[3 4-d]pyrimidin-4-one], with 88.3 nM.
For the compound `Cn1ncc2c(=O)[nH]c(N3CCC(c4[nH]ncc4S(C)(=O)=O)CC3)nc21` [Compound I-81, 1-methyl-6-[4-(4-methylsulfonyl-1H-pyrazol-5-yl)-1-piperidyl]-5H-pyrazolo[3 4-d]pyrimidin-4-one], the IC50 was 14.3 nM.
Then `COCCOc1cc(F)c(N2CCN(c3nc4c(cnn4C4CCOCC4)c(=O)[nH]3)CC2)c(F)c1` [Compound I-123, 6-[4-[2 6-difluoro-4-(2-methoxyethoxy)phenyl]piperazin-1-yl]-1-tetrahydropyran-4-yl-5H-pyrazolo[3 4-d]pyrimidin-4-one], with 168 nM.
Consider `Cn1ncc2c(=O)[nH]c(N3CCC(Cc4ncccn4)C3)nc21` (centres unmarked) [Compound I-133, 1-methyl-6-[3-(pyrimidin-2-ylmethyl)pyrrolidin-1-yl]-5H-pyrazolo[3 4-d]pyrimidin-4-one], for which the IC50 is 337 nM.
As for `Cn1ncc2c(=O)[nH]c(N3CCN(C4COC4)CC3)nc21` [Compound I-144, 1-methyl-6-[4-(oxetan-3-yl)piperazin-1-yl]-5H-pyrazolo[3 4-d]pyrimidin-4-one], the IC50 turned out to be 830 nM.
Take `Cn1cncc1C1CCN(c2nc3c(cnn3C)c(=O)[nH]2)CC1` [Compound I-100, 1-methyl-6-[4-(3-methylimidazol-4-yl)-1-piperidyl]-5H-pyrazolo[3 4-d]pyrimidin-4-one]: the half-inhibitory concentration (IC50) turned out to be 43.8 nM.
Then `CCS(=O)(=O)c1ccc(-c2nc3c(cnn3C)c(=O)[nH]2)cc1` [Compound I-107, 6-(4-ethylsulfonylphenyl)-1-methyl-5H-pyrazolo[3 4-d]pyrimidin-4-one], with 68.1 nM.
For the compound `Cn1ncc2c(=O)[nH]c(N3CCN(c4c(F)cc(OCCOP(=O)(O)O)cc4F)CC3)nc21` [Compound I-75, 2-[3 5-difluoro-4-[4-(1-methyl-4-oxo-5H-pyrazolo[3 4-d]pyrimidin-6-yl)piperazin-1-yl]phenoxy]ethyl dihydrogen phosphate], the IC50 was 9.6 nM.
Regarding `Cc1c[nH]nc1C1CCN(c2nc3c(cnn3C)c(=O)[nH]2)CC1` [Compound I-115, 1-methyl-6-[4-(4-methyl-1H-pyrazol-3-yl)-1-piperidyl]-5H-pyrazolo[3 4-d]pyrimidin-4-one], the IC50 was found to be 107 nM.
In the case of `CC(O)Cn1ccc(C2(C)CCN(c3nc4c(cnn4C)c(=O)[nH]3)CC2)n1` (centres unmarked) [Compound I-99, 6-[4-[1-(2-hydroxypropyl)pyrazol-3-yl]-4-methyl-1-piperidyl]-1-methyl-5H-pyrazolo[3 4-d]pyrimidin-4-one], the concentration for half-maximal inhibition (IC50) turned out to be 41.9 nM.
Consider `Cn1ncc2c(=O)[nH]c(-c3ccc(S(=O)(=O)CC4CCCCC4)cc3)nc21` [Compound I-108, 6-[4-(cyclohexylmethylsulfonyl)phenyl]-1-methyl-5H-pyrazolo[3 4-d]pyrimidin-4-one], for which the concentration for half-maximal inhibition (IC50) turned out to be 68.4 nM.
For `CN1CCN(Cc2cc(F)c(N3CCN(c4nc5c(cnn5C)c(=O)[nH]4)CC3)c(F)c2)CC1` [Compound I-60, 6-[4-[2 6-difluoro-4-[(4-methylpiperazin-1-yl)methyl]phenyl]piperazin-1-yl]-1-methyl-5H-pyrazolo[3 4-d]pyrimidin-4-one], the IC50 came to 3.8 nM.
As to `Cn1ncc2c(=O)[nH]c(N3CCN(c4c(F)cc(OC5CCOCC5)cc4F)CC3)nc21` [Compound I-76, 6-[4-(2 6-difluoro-4-tetrahydropyran-4-yloxy-phenyl)piperazin-1-yl]-1-methyl-5H-pyrazolo[3 4-d]pyrimidin-4-one], the IC50 was 11.1 nM.
Then `Cn1ncc2c(=O)[nH]c(N3CCN(c4c(F)cc(CC(O)CO)cc4F)CC3)nc21` (centres unmarked) [Compound I-66, 6-[4-[4-(2 3-dihydroxypropyl)-2 6-difluoro-phenyl]piperazin-1-yl]-1-methyl-5H-pyrazolo[3 4-d]pyrimidin-4-one], with 6.6 nM.
Next, `Cc1cc(CN2CCN(c3nc4c(cnn4C)c(=O)[nH]3)CC2)no1` [Compound I-140, 1-methyl-6-[4-[(5-methylisoxazol-3-yl)methyl]piperazin-1-yl]-5H-pyrazolo[3 4-d]pyrimidin-4-one]: 566 nM; `Cn1nccc1CN1CCN(c2nc3c(cnn3C)c(=O)[nH]2)CC1` [Compound I-132, 1-methyl-6-[4-((2-methylpyrazol-3-yl)methyl]piperazin-1-yl]-5H-pyrazolo[3 4-d]pyrimidin-4-one]: 329 nM.
For the compound `COCCOc1cc(F)c(N2CCN(c3nc4c(cnn4CC(C)(C)O)c(=O)[nH]3)CC2)c(F)c1` [Compound I-143, 6-[4-[2 6-difluoro-4-(2-methoxyethoxy)phenyl]piperazin-1-yl]-1-(2-hydroxy-2-methyl-propyl)-5H-pyrazolo[3 4-d]pyrimidin-4-one], the IC50 worked out at 795 nM.
Take `Cn1ncc2c(=O)[nH]c(N3CCN(c4c(F)cc(OCC5C[S+]([O-])C5)cc4F)CC3)nc21` (centres unmarked) [Compound I-72, 6-[4-[2 6-difluoro-4-[(1-oxothietan-3-yl)methoxy]phenyl]piperazin-1-yl]-1-methyl-5H-pyrazolo[3 4-d]pyrimidin-4-one]: the concentration for half-maximal inhibition (IC50) was 8.6 nM.
Next, `Cn1ncc2c(=O)[nH]c(N3CCC(c4ccncc4)CC3)nc21` [Compound I-109, 1-methyl-6-[4-(4-pyridyl)-1-piperidyl)-5H-pyrazolo[3 4-d]pyrimidin-4-one]: 80.6 nM.
Then `Cn1ncc2c(=O)[nH]c(N3CCC(C)(c4ccn(CC(C)(C)O)n4)CC3)nc21` [Compound I-127, 6-[4-[1-(2-hydroxy-2-methyl-propyl)pyrazol-3-yl)-4-methyl-1-piperidyl]-1-methyl-5H-pyrazolo[3 4-d]pyrimidin-4-one], with 223 nM.
